One series has as its target T1, Ligase III/XRCC1 (Homo sapiens, UniProt P49916).
T1 construct: made in house
The series can be described thus: Inhibition of end joining by purified Ligase III/XRCC1. Format: biochemical. As to conditions: 50, 100, 200, 500, 1000 μM. On the procedure:
The compounds of the present invention were analysed for inhibition of end joining with purified Ligase I (FIG. 3A) and Ligase III/XRCC1 (FIG. 3F). The compounds were incubated with either purified Ligase I (FIG. 3B-E) or with Ligase III/XRCC1 (FIGS. 3G-J) in suitable NHEJ buffer at 25° C. for 30 min, followed by addition of radiolabeled DNA, and further incubation for 1 h at 25° C. Products were purified using phenol: chloroform, and run on denaturing PAGE.
Effects of these compounds on NHEJ and Ligase IV mediated joining were evaluated (FIG. 4A-K). The reactions were terminated by EDTA (10 mM), products were purified using phenol/chloroform, precipitated with chilled ethanol and glycogen, and resolved on 8% denaturing PAGE. The gel was dried, exposed, and signal was detected using phosphor Imager FLA9000 (Fuji, Japan), and quantified in MultiGauge software expressed as Photo Stimulated Luminescence Units (PSLU). Inhibition of end joining was reported at 200 μM and 100 μM, respectively for SCR116 and SCR132 (FIGS. 4A, B, C and D), with >50% inhibition at 200 and 100 μM concentrations, respectively. […] FIG. 4K depict the purification profile of Ligase IV and XRCC4. […]

For series [1] the following is noted: mouse, in vivo, po.
Experimental: The bioavailability of the compounds of the present disclosure were analysed in mice serum at different time points (0.5, 1, 2, 4, 6, 8, 10, 12, 24 and 48 h) by HPLC at 232 nm wavelength (FIGS. 10N-P).
Another series deals with HeLa cells. Kind of series: Neutral comet assay in HeLa cells. Type of series: cell-based. The following applies: 24 h; SCR116 5 μM, SCR132 2 μM; radiation 0.5 Gy; vs control. On the procedure: (§1) FIG. 8(A-B) depicts accumulation of DSBs inside cells following treatment with the compounds. A. Representative images for HeLa cells subjected to neutral comet assay following treatment with SCR116 and SCR132 for 24 h. […] FIG. 8C, D are representative images for Nalm6 cells (C) and N114 cells (D) following treatment with SCR116 and SCR132 for 24 h. and FIG. 8E, F are scatter plot depicting quantification of percentage of 53BP1 foci treated with SCR116 (2, 5 μM) and SCR132 (1, 2 μM) in Nalm6 and N114.

Another series has as its system Reh. The series can be described thus: Cytotoxicity in Reh. Format: cell-based. As to conditions: 48 h. As to the method: The compounds of the present invention were screened initially in leukemic and cervical cancer cell lines (Table 1). […] In cervical cancer cell line HeLa, IC50 was 5 and 2 μM, respectively for SCR116 and SCR132 (FIG. 5A-B).
(§2) Ligase IV specificity of the compounds of the present invention inside the cells were also determined using Ligase IV knock out (KO) cell line N114 compared to the wild type Nalm6 (Table 2, FIGS. 5C, D, E and F). […] Table 1 showing IC50 of SCR7 derivatives in cancer cell lines Nalm6 and HeLa. IC50 was calculated using GraphPad Prism software from the percentage of viable cells following treatment with the compounds at 48 h. Table 2 showing IC50 of SCR116 and SCR132 in a panel of 16 cancer cell lines.

In the next series the test system is Molt4 derived xenograft. The series can be described thus: Mouse xenograft model, Molt4. Format: in vivo. The following applies: for Tumor volume: alternate days; for Survival: tumor control animals died by day 18. On the procedure: Effect of the compounds was further evaluated in mouse xenograft model generated using Ligase IV high human leukemic cell line, Molt4. Oral doses of SCR116 and SCR132 at 10 mg/kg and 15 mg/kg respectively were administered on alternate days.

For another series, the system named is EAC. Kind of series: Cytotoxicity in EAC. Format: cell-based, mice. The following applies: Mus musculus; Table 2; read-out: IC50 in cancer cell lines, EAC. On the procedure: as §2
The next series deals with cancer cells. The series can be described thus: Cytotoxicity in combination with radiation or chemotherapeutic agents. Type of series: cell-based. The following applies: combined with 0.5 and 1 Gy γ-radiation, or 5-FU and etoposide. On the procedure:
FIG. 7(A-F) depicts evaluation of generation of double-strand breaks inside cells treated with compounds SCR116 and SCR132 alone or in combination, A. Immunofluorescence with 53BP1 in HeLa cells treated with increasing concentration of SCR116 (2 and 5 μM) and SCR132 (1 and 2 μM). Nucleus is stained in red using propidium iodide, while green signal represents 53BP1 foci (FITC). B. Quantification of 53BP1 foci inside HeLa cells treated with SCR116 and SCR132 for 24 h, as denoted using scatter plot. Significance was calculated using ANOVA in GraphPad Prism software (ns, not significant; *p<0.05, **p<0.005, ***p<0.0001). C-D. Bar graphs showing percentage of viable cells following treatment with the compounds alone, or in presence of γ-radiation (0.5 Gy) at 24 (C) and 48 h (D). 2 and 4 μM SCR116, and 1 and 2 μM SCR132 were used. E. Bar graph showing percentage of viable cells following treatment with SCR116 (0.375 μM) or SCR132 (0.125 μM) alone, or in presence of 0.25 μM etoposide at 48 h. F. Bar graph showing percentage of viable cells following treatment with SCR116 (0.375 μM) or SCR132 (0.125 μM) alone, or in presence of 0.375 μM 5-FU at 48 h, in accordance with an implementation of the present disclosure.

Series [2] has as its system V(D)J recombination in Nalm6 (pGG51). The series can be described thus: V(D)J recombination in Nalm6 using pGG51. Type of series: cell-based. The following applies: for Fold reduction in recombination efficiency: vs vehicle control. On the procedure: Evaluation of efficiency of V(D)J recombination following treatment with SCR116 and SCR132 was carried out as depicted in FIGS. 6(A-C). Tables 4 and 5 summarize the effect of SCR116 (1 and 2 μM) and SCR132 (0.5 and 1 μM) on V(D)J recombination in Nalm6 using pGG49 and pGG51, respectively.

Another series relates to 53BP1 foci in N114. The series can be described thus: 53BP1 foci in N114 cells. As to conditions: 24 h, SCR116 2, 5 μM, SCR132 1, 2 μM. Format: cell-based. As to the method: as §1
The next series has as its system Molt3. Kind of series: Cytotoxicity in Molt3. Type of series: cell-based. As to conditions: Homo sapiens, MOLT-3; Table 2; read-out: IC50 in cancer cell lines, Molt3. As to the method: as §2
Another series has as its system 53BP1 foci in Nalm6. Kind of series: 53BP1 foci in Nalm6 cells. The following applies: 24 h, SCR116 2, 5 μM, SCR132 1, 2 μM. Format: cell-based. On the procedure: as §1
Where [3] appears, read: Homo sapiens, REH, Table 2, read-out: IC50 in cancer cell lines, Reh.

Several values for one entry are separate records, joined by “and”; a condition that tells them apart may be missing. Equal values may be shown once. Read-outs that look alike come from different tables or passages of the source.

T1 sequence (P49916 43-1009): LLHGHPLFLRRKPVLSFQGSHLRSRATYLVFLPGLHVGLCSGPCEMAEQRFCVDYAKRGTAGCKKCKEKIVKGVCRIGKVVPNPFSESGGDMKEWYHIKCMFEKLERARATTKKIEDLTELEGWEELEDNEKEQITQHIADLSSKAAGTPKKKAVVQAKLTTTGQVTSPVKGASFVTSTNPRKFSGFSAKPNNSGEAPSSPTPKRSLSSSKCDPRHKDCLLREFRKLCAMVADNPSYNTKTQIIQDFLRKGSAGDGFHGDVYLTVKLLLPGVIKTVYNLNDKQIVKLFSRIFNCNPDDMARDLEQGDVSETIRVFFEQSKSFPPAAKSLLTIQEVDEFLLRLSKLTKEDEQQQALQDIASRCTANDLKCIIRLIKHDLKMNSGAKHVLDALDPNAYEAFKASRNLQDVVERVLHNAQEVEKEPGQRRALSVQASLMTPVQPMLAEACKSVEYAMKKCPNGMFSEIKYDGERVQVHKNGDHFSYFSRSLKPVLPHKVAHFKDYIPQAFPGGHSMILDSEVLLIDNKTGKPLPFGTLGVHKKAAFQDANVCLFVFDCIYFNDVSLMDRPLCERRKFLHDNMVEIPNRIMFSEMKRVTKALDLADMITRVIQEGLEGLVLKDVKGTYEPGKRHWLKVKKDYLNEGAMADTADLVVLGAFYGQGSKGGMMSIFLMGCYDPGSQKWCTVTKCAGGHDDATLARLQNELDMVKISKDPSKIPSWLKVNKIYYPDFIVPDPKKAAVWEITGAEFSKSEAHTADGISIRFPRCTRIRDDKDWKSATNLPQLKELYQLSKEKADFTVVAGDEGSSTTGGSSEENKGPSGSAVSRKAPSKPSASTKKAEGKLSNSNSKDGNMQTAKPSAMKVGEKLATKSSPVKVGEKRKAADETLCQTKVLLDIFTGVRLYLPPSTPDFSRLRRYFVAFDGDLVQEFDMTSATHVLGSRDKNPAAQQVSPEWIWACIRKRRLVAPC
T1 sequence (P18887 whole entry partner): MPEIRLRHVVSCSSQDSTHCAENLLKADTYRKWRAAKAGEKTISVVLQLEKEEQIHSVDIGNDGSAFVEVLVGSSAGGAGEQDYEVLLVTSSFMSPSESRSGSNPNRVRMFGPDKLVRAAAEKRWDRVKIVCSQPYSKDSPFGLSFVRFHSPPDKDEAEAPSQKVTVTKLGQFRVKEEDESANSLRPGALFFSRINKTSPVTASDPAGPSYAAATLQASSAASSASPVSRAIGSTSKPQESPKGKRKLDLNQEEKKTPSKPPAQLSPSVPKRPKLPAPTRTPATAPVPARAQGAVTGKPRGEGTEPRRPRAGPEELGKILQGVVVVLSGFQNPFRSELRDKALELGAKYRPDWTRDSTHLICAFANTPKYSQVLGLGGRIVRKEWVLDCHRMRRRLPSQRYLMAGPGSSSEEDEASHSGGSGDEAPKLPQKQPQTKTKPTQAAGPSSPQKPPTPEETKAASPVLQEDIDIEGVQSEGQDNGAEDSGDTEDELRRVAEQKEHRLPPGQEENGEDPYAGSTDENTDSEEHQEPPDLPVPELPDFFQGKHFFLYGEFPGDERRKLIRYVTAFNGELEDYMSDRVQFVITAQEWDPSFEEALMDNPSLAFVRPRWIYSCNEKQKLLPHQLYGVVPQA

One may read the IC50 as the concentration that gives 50% inhibition. Take `Nc1nc(S)nc(O)c1/N=C/c1ccc([N+](=O)[O-])s1` [Compound 16, (E)-6-amino-2-mercapto-5-(((5-nitrothiophen-2-yl)methylene)amino)pyrimidin-4-ol]: on Ligase III/XRCC1, the “Inhibition of end joining with Ligase III/XRCC1” value is “inhibited end joining at highest concentrations of 500 and 1000 μM”. Further, the “Course of serum level” value in series [1] is “continued to increase till 10 h”. Besides, in the series on HeLa cells, the “DNA in the tail of the comet” value is “increased amount of DNA in the tail of the comet”. The “Fold difference of IC50 in Reh to that of SCR7” value in the series with Reh is reported as greater than 100 fold. Further, the IC50 turned out to be 2300 nM in the series with Reh (setting [3]); 2340 nM in the series on Reh (Table 2, listed as SCR116, read-out: IC50 in cancer cell lines, Reh); 16.5 µM in the series with EAC; 3100 nM in the series on Molt3. Further, the Tumor volume entry with Molt4 derived xenograft (oral 10 mg/kg) was “effectively reduced the tumor volume”. Further, in the series on Molt4 derived xenograft (oral 10 mg/kg), the Survival result was “survived the entire experimental period”. Besides, in the series with cancer cells, the Cytotoxicity in combination entry was “Increased cytotoxicity”. Besides, the “Recombination efficiency (CA/A) ×100” value in [2] (1 μM) stood at 0.030; in series [2] (2 μM) it was 0.005. Further, the “Fold reduction in recombination efficiency” value in [2] (1 μM, listed as SCR116) was 9 fold and 9.0 fold; in series [2] (2 μM, listed as SCR116) it was 54 fold and 54.0 fold. Also, the 53BP1 foci entry with 53BP1 foci in N114 is “no significant increase in the number of 53BP1 foci”; in the series with 53BP1 foci in Nalm6 it was “significant increase in 53BP1 foci”.
Regarding `Nc1nc(S)nc(O)c1/N=C/c1sc(Cl)nc1Cl` [Compound 32, (E)-6-amino-5-(((2,4-dichlorothiazol-5-yl)methylene)amino)-2-mercaptopyrimidin-4-ol], the “Inhibition of end joining with Ligase III/XRCC1” value on Ligase III/XRCC1 is recorded as “no significant inhibition”. For the same compound, the “Course of serum level” value in [1] is “became stabilized between 4 h and 6 h”. For the same compound, in the series on HeLa cells, the “DNA in the tail of the comet” value is recorded as “increased amount of DNA in the tail of the comet”. Also, the “Fold difference of IC50 in Reh to that of SCR7” value with Reh is greater than 250 fold. Also, the half-inhibitory concentration (IC50) with Reh (setting [3]) is 690 nM; in the series with Reh (Homo sapiens, REH, read-out: IC50 in Reh cells), 690 nM; in the series on EAC it was 14.8 µM; in the series with Molt3 it was 795 nM. Besides, the Tumor volume result with Molt4 derived xenograft (oral 15 mg/kg) is given as “effectively reduced the tumor volume”. In addition, the Survival entry in the series on Molt4 derived xenograft (oral 15 mg/kg) is “survived the entire experimental period”. Besides, in the series with cancer cells, the Cytotoxicity in combination result is listed as “Increased cytotoxicity”. Further, the “Recombination efficiency (CA/A) ×100” value is 0.006 in [2] (0.5 μM) and 0.003 in [2] (1 μM). Besides, the “Fold reduction in recombination efficiency” value in [2] (0.5 μM, listed as SCR132) is 50 fold and 50.0 fold; in series [2] (1 μM, listed as SCR132), 106 fold and 106.6 fold. In addition, the results for the 53BP1 foci result in the series on 53BP1 foci in N114 and in the series with 53BP1 foci in Nalm6 were “no significant increase in the number of 53BP1 foci” and “significant increase in 53BP1 foci”, respectively.

Values taken from patent US20250100977A1, “MERCAPTOPYRIMIDINE COMPOUNDS THAT INHIBIT NONHOMOLOGOUS END JOINING AND METHODS THEREOF” (INDIAN INSTITUTE OF SCIENCE, priority 2021, published 2025).
